Measurements as given in patent publication US20180099931A1 (AbbVie S.à.r.l., priority 2016, published 2018).
Read-outs that look alike come from different tables or passages of the source.

Target: T1, F508delCFTR (Homo sapiens, UniProt P13569, DEL508-508)
T1 construct: expressed in transfected cells; host or cells: CFBE41o- human lung-derived epithelial cells (CFBE4lo-F508delCFTR-HRP), doxycycline-inducible
Experiment: Cell Surface Expression-Horse Radish Peroxidase (CSE-HRP) Assay;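 on Maximum % activity (with co-corrector): co-corrector and positive control are both the same reference corrector at 2 µM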;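 on Maximum % activity (without co-corrector): percent of the 2 µM on-plate positive control corrector response above DMSO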
Format: cell-based
Details: for Emax / Maximum % activity (with co-corrector): maximum at any tested concentration, normalized to on-plate positive control; for Emax: read-out: Maximum % activity (without co-corrector)

[1] = test compound without co-corrector
[2] = test compound without co-corrector, read-out: EC50 (without co-corrector)
[3] = with co-corrector (2 μM of 3-[(2R,4R)-4-({[1-(2,2-difluoro-1,3-benzodioxol-5-yl)cyclopropyl]carbonyl}amino)-7-methoxy-3,4-dihydro-2H-chromen-2-yl]benzoic acid)
[4] = with co-corrector (2 μM of 3-[(2R,4R)-4-({[1-(2,2-difluoro-1,3-benzodioxol-5-yl)cyclopropyl]carbonyl}amino)-7-methoxy-3,4-dihydro-2H-chromen-2-yl]benzoic acid), read-out: EC50 (with co-corrector)
[5] = CSE-HRP, test compound without co-corrector, read-out: EC50 (without co-corrector)
[6] = CSE-HRP, with co-corrector (2 μM of 3-[(2R,4R)-4-({[1-(2,2-difluoro-1,3-benzodioxol-5-yl)cyclopropyl]carbonyl}amino)-7-methoxy-3,4-dihydro-2H-chromen-2-yl]benzoic acid), read-out: EC50 (with co-corrector)
[7] = CSE-HRP, with co-corrector (2 μM)

T1 sequence (P13569 with tags, fused parts or gaps DEL508-508): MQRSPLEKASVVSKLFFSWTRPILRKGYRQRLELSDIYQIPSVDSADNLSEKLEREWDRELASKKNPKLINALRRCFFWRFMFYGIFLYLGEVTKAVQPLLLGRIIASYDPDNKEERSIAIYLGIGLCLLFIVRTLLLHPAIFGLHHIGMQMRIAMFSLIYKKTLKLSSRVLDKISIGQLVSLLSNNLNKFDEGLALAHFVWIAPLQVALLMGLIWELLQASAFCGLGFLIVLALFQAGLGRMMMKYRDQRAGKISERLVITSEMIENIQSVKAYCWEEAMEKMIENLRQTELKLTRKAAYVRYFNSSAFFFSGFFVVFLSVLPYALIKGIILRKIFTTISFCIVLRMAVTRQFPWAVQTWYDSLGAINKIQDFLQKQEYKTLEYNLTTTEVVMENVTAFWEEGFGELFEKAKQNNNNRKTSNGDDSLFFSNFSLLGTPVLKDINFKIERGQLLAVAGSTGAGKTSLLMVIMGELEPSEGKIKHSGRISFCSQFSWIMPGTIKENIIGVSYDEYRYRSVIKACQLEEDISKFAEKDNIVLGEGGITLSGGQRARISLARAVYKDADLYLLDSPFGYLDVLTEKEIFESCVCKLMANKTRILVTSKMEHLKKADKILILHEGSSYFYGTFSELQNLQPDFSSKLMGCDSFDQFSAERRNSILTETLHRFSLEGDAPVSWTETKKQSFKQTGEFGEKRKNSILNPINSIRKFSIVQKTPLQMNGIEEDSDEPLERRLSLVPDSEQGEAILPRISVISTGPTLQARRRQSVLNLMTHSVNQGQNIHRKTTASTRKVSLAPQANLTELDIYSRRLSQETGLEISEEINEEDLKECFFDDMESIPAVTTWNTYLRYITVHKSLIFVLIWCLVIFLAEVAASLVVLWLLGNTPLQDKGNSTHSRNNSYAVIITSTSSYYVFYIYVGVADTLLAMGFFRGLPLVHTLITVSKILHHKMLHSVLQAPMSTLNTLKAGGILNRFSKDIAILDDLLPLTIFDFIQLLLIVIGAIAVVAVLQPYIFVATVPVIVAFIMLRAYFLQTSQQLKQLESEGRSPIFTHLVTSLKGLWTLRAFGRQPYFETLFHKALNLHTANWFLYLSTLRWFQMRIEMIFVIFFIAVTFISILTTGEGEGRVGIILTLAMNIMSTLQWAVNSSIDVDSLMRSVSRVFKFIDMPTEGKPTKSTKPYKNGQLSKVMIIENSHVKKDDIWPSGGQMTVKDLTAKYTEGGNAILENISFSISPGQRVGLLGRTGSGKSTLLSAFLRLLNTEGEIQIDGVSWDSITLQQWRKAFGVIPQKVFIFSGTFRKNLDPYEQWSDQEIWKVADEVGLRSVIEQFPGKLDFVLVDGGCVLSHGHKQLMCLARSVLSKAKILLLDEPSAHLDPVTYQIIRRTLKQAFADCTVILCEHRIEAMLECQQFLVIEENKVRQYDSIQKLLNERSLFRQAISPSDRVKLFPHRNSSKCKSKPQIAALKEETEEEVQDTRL

Compound	Emax [1] [%]	EC50 [2] [nM]	Maximum % activity (with co-corrector) [3]	EC50 [4] [nM]	EC50 [5] [nM]	EC50 [6] [nM]	Maximum % activity (with co-corrector) [7]	Emax (CSE-HRP, without co-corrector) [%]	Maximum % activity (with co-corrector) (with co-corrector (2 μM))	Emax (without co-corrector) [%]
COC(=O)N1[C@H](C(=O)O)[C@@H](C(C)(C)C)[C@H](NCc2cc(C(C)(C)C)ccc2OC)[C@@H]1c1ccccc1 [II-388]	> 200	1000 to 10000	+++ (≥350)	1000 to 10000	–	–	–	–	–	–
COc1ccc(C2CCCC2)cc1CN[C@H]1[C@H](C(C)(C)C)[C@@H](C(=O)O)N(C(=O)C2CCCCC2)[C@H]1c1ccccc1 [II-193]	–	–	–	–	< 1000	< 1000	+++ (≥350)	> 200	–	–
COc1nc2ccccc2cc1CN[C@H]1[C@H](C(C)(C)C)[C@@H](C(=O)O)N(C(=O)C2CCOCC2)[C@H]1c1cccnc1N(C)C [II-600]	< 100	1000 to 10000	++ (≥150 and <350)	1000 to 10000	–	–	–	–	–	–
Cc1cc(C(F)(F)F)cc(N[C@@H]2[C@@H](C(C)(C)C)[C@H](C(=O)O)N(C(=O)OC(C)C)[C@@H]2c2ccccc2)n1 (racemic) [II-13]	–	–	–	–	1000 to 10000	1000 to 10000	+++ (≥350)	< 100	–	–
COc1ccc(C(C)(C)C)cc1CN[C@H]1[C@H](C(C)(C)C)[C@@H](C(=O)O)N(C(=O)C2CCCCC2C(F)(F)F)[C@H]1c1ccccc1 (stereo partly shown) [II-378]	> 200	< 1000	+++ (≥350)	< 1000	–	–	–	–	–	–
COc1cc(C(F)(F)F)ccc1CN[C@H]1[C@H](C(C)(C)C)[C@@H](C(=O)O)N(C(=O)OC(C)C)[C@H]1c1ccccc1 [II-487]	> 200	1000 to 10000	+++ (≥350)	1000 to 10000	–	–	–	–	–	–
COc1ccc(C(C)(C)C)cc1CN[C@H]1[C@H](C(C)(C)C)[C@@H](C(=O)O)N(C(=O)c2c(C)nn3c2CCCC3)[C@H]1c1ccccc1 [II-363]	100 to 200	1000 to 10000	+++ (≥350)	1000 to 10000	–	–	–	–	–	–
COc1cc(C(F)(F)F)ccc1CN[C@@H]1[C@@H](C(C)(C)C)[C@H](C(=O)O)N(C(=O)C2CCCCC2)[C@@H]1c1ccccc1OC (stereo in doubt) [III-40]	100 to 200	1000 to 10000	+++ (≥350)	< 1000	–	–	–	–	–	–
COc1ncc(C(F)(F)F)cc1CN[C@H]1[C@H](C(C)(C)C)[C@@H](C(=O)O)N(C(=O)C2CCCCC2)[C@H]1c1ccccc1OC(F)F [Example 14, (2S,3S,4S,5S)-3-tert-butyl-1-(cyclohexanecarbonyl)-5-[2-(difluoromethoxy)phenyl]-4-({[2-methoxy-5-(trifluoromethyl)pyridin-3-yl]methyl}amino)pyrrolidine-2-carboxylic acid]	–	1000 to 10000	–	1000 to 10000	–	–	–	–	+++ (≥350)	< 100
COc1ccc(C(C)(C)C)cc1CN[C@H]1[C@H](C(C)(C)C)[C@@H](C(=O)O)N(C(=O)C2CCc3cc(Cl)ccc32)[C@H]1c1ccccc1 (stereo partly shown) [II-369]	> 200	< 1000	+++ (≥350)	< 1000	–	–	–	–	–	–
COc1ccc(C(C)(C)C)cc1CN[C@H]1[C@H](C(C)(C)C)[C@@H](C(=O)O)N(C(=O)C(C)Oc2ccccc2Cl)[C@H]1c1ccccc1 (stereo partly shown) [II-312]	–	–	–	–	< 1000	< 1000	+++ (≥350)	100 to 200	–	–
COc1cc2ccccc2cc1CN[C@H]1[C@H](C(C)(C)C)[C@@H](C(=O)O)N(C(=O)C2CCCCC2)[C@H]1c1ccccc1 [Example I-42]	–	1000 to 10000	–	< 1000	–	–	–	–	+++ (≥350)	> 200
COc1ccc(C(F)(F)F)cc1CN[C@H]1[C@H](C(C)(C)C)[C@@H](C(=O)O)N(C(=O)C2CCCCC2)[C@H]1c1ccccc1F [II-260]	–	–	–	–	1000 to 10000	1000 to 10000	+++ (≥350)	100 to 200	–	–
COc1ccc(C(F)(F)F)cc1CN[C@H]1[C@H](C(C)(C)OC)[C@@H](C(=O)O)N(C(=O)C2CCCCC2)[C@H]1c1cccnc1OC [II-436]	100 to 200	1000 to 10000	+++ (≥350)	1000 to 10000	–	–	–	–	–	–
COc1ccc(C)cc1CN[C@@H]1[C@@H](C(C)(C)C)[C@H](C(=O)O)N(C(=O)OC(C)C)[C@@H]1c1ccccc1 (racemic) [II-40]	–	–	–	–	1000 to 10000	1000 to 10000	+++ (≥350)	100 to 200	–	–
COc1cc2ccccc2cc1CN[C@H]1[C@H](C(C)(C)C)[C@@H](C(=O)O)N(C(=O)OC(C)C)[C@H]1c1ccccc1 [II-550]	> 200	1000 to 10000	+++ (≥350)	1000 to 10000	–	–	–	–	–	–

Compound	Emax [1] [%]	EC50 [2] [nM]	Maximum % activity (with co-corrector) [3]	EC50 [4] [nM]	EC50 [5] [nM]	EC50 [6] [nM]	Maximum % activity (with co-corrector) [7]	Emax (CSE-HRP, without co-corrector) [%]	Maximum % activity (with co-corrector) (with co-corrector (2 μM))	Emax (without co-corrector) [%]
COc1ccc(C(C)(C)C)cc1CN[C@H]1[C@H](C(C)(C)C)[C@@H](C(=O)O)N(C(=O)C2CCC(OC)CC2)[C@H]1c1ccccc1 (stereo partly shown) [II-214]	–	–	–	–	1000 to 10000	1000 to 10000	+++ (≥350)	> 200	–	–
COc1ncc(C(F)(F)F)cc1CN[C@H]1[C@H](C(C)(C)C)[C@@H](C(=O)O)N(C(=O)[C@@H]2CCCC(F)(F)C2)[C@H]1c1cccnc1OC [II-572]	100 to 200	1000 to 10000	+++ (≥350)	< 1000	–	–	–	–	–	–
COc1ccc(Cl)cc1CN[C@H]1[C@H](C(C)(C)C)[C@@H](C(=O)O)N(C(=O)C2CCCO2)[C@H]1c1ccccc1 (mixture of isomers) [II-61]	–	–	–	–	1000 to 10000	1000 to 10000	+++ (≥350)	100 to 200	–	–
COc1ccc(C2(C)CCC2)cc1CN[C@H]1[C@H](C(C)(C)C)[C@@H](C(=O)O)N(C(=O)[C@H]2CCCCO2)[C@H]1c1cccnc1N(C)C [II-493]	> 200	1000 to 10000	+++ (≥350)	1000 to 10000	–	–	–	–	–	–
COc1ccc(CN[C@H]2[C@H](C(C)(C)C)[C@@H](C(=O)O)N(C(=O)C3CCCCC3)[C@H]2c2ccccc2)cc1C(F)(F)F [II-127]	–	–	–	–	1000 to 10000	1000 to 10000	++ (≥150 and <350)	< 100	–	–
COc1ccc(-c2ccccc2)cc1CN[C@H]1[C@H](C(C)(C)C)[C@@H](C(=O)O)N(C(=O)[C@@H]2CCC[C@@H](OC)C2)[C@H]1c1ccccc1 [Example I-78]	–	1000 to 10000	–	< 1000	–	–	–	–	+++ (≥350)	> 200
COc1ccc(Cl)cc1CN[C@H]1[C@H](C(C)(C)C)[C@@H](C(=O)O)N(C(=O)OC(C)C)[C@H]1c1ccccc1OC [II-137]	–	–	–	–	1000 to 10000	1000 to 10000	+++ (≥350)	100 to 200	–	–
COc1ccc(C(C)(C)C)cc1CN[C@H]1[C@H](C(C)(C)C)[C@@H](C(=O)O)N(C(=O)CN2CCCCCC2)[C@H]1c1ccccc1 [Example I-100]	–	1000 to 10000	–	1000 to 10000	–	–	–	–	+++ (≥350)	> 200
COc1ncc(C(F)(F)F)cc1N[C@H]1[C@H](C(C)(C)C)[C@@H](C(=O)O)N(C(=O)[C@H]2CCCCO2)[C@H]1c1cccnc1N(C)C [III-213]	< 100	> 10000	–	> 10000	–	–	–	–	+ (<150)	–
COc1ncc(C2CCC2)cc1CN[C@H]1[C@H](C(C)(C)C)[C@@H](C(=O)O)N(C(=O)[C@H]2CCCCO2)[C@H]1c1ccccc1F [II-566]	100 to 200	1000 to 10000	+++ (≥350)	1000 to 10000	–	–	–	–	–	–
COc1ncc(C(F)(F)F)cc1CN[C@H]1[C@H](C(C)(C)C)[C@@H](C(=O)O)N(C(=O)C2CCCCC2)[C@H]1c1cccc2c1OC(C)(C)C2 [Example 118, (2S,3S,4S,5S)-3-tert-butyl-1-(cyclohexanecarbonyl)-5-(2,2-dimethyl-2,3-dihydro-1-benzofuran-7-yl)-4-({[2-methoxy-5-(trifluoromethyl)pyridin-3-yl]methyl}amino)pyrrolidine-2-carboxylic acid]	–	< 1000	–	< 1000	–	–	–	–	+++ (≥350)	100 to 200
COc1ccc(C(F)(F)F)cc1CN[C@H]1[C@H](C(C)(C)C)[C@@H](C(=O)O)N(C(=O)[C@](OC)(c2ccccc2)C(F)(F)F)[C@H]1c1ccccc1 [III-100]	< 100	> 10000	–	1000 to 10000	–	–	–	–	++ (≥150 and <350)	–
COc1ccc(C(C)(C)C)cc1CN[C@H]1[C@H](C(C)(C)C)[C@@H](C(=O)O)N(C(=O)CC2(O)CCCC2)[C@H]1c1ccccc1 [Example I-99]	–	1000 to 10000	–	1000 to 10000	–	–	–	–	+++ (≥350)	> 200
COc1ccc(C(C)(C)C(F)(F)F)cc1CN[C@H]1[C@H](C(C)(C)C)[C@@H](C(=O)O)N(C(=O)C2CCCCC2)[C@H]1c1ccccc1 [Example I-213]	–	1000 to 10000	–	1000 to 10000	–	–	–	–	+++ (≥350)	> 200
COc1ncc(Br)cc1CN[C@H]1[C@H](C(C)(C)C)[C@@H](C(=O)O)N(C(=O)[C@@H]2CCCCO2)[C@H]1c1ccccc1C [Example I-287]	–	–	–	–	1000 to 10000	< 1000	+++ (≥350)	> 200	–	–
